Assay: log P (HPLC/MS data of the preparation examples)
Settings: for log p: linear gradient 10% to 95% acetonitrile
[1] = method [b]: LC-MS at pH 2.7, 0.1% formic acid in water / acetonitrile
[2] = LC-MS, method [b]: pH 2.7 with 0.1% formic acid in water and acetonitrile
[3] = HPLC (LC-MS) method [b]: pH 2.7, 0.1% formic acid in water and acetonitrile, EEC directive 79/831 Annex V.A8
[4] = reversed phase HPLC column, pH 2.7

Row | Structure (SMILES) | log p [2] | also measured
1 | Cn1cnnc1C(=NOCc1cccc(NC(=O)CC(F)(F)F)n1)c1ccccc1 [Example 160] | – | log p [1]: 2.28^[b]
2 | CC(C)CCOC(=O)Nc1cccc(CON=C(c2ccccc2)c2nccn2C)n1 [Example 326] | 2.51^[b] | –
3 | CCCCC(=O)Nc1cccc(CON=C(c2ccccc2)c2snnc2C)n1 [Example 224] | – | log p [1]: 4.04^[b]
4 | Cn1cnnc1C(=NOCc1cccc(NC(=O)Cc2ccccc2)n1)c1ccccc1 [Example 158] | – | log p [1]: 2.56^[b]
5 | CCCCCOC(=O)Nc1cccc(CON=C(c2ccccc2)c2nncn2C)n1 [Example 157] | – | log p [1]: 3.29^[b]
6 | Cn1ncnc1C(=NOCc1cccc(NC(=O)CCc2ccccc2C(F)(F)F)n1)c1ccccc1 [Example 303] | 3.87^[b] | –
7 | CCCCCC(=O)Nc1cccc(CON=C(c2ccc(C)cc2)c2ncnn2C)n1 [Example 18] | 3.71^[b] | –
8 | Cn1nncc1C(=NOCc1nccc(N)n1)c1ccccc1 [Example 70] | 0.96^[b] | –
9 | Cn1ncnc1C(=NOCc1cccc(CN2C(=O)c3ccccc3C2=O)n1)c1ccccc1 [Example 161] | – | log p [1]: 2.9^[b]
10 | Cn1ncnc1C(=NOCc1ccc2ccccc2n1)c1ccccc1 [Example 51] | 2.51^[b] | –
11 | CSCCC(=O)Nc1cccc(CON=C(c2ccccc2)c2nnc(C(F)(F)F)n2C)n1 [Example 206] | – | log p [1]: 3.15^[b]
12 | CSCCC(=O)Nc1cccc(CON=C(c2cccc(F)c2)c2nccn2C)n1 [Example 287] | 2.07^[b] | –
13 | Cn1ccnc1C(=NOCc1cccc(NC(=O)OCCF)n1)c1cccc(F)c1 [Example 343] | 1.75^[b] | –
14 | CCCCCCC(=O)Nc1cccc(CON=C(c2ccc(OC)c(Br)c2)c2ncc(C(F)(F)F)cc2Cl)n1 [Example 369] | 5.82^[b] | –
15 | Cn1c(C(=NOCc2nccc(N(C(=O)C3CC3)C(=O)C3CC3)n2)c2ccccc2)cnc1C(=O)C1CC1 [Example 312, N-(cyclopropylcarbonyl)-N-(2-{[({[2-(cyclopropylcarbonyl)-1-methyl-1H-imidazol-5-yl](phenyl)methylene}amino)oxy]methyl}pyrimidin-4-yl)cyclopropanecarboxamide] | – | chromatographic logP (HCOOH (formic acid)): 3.73
16 | CCCCCC(=O)Nc1ccnc(CON=C(c2ccccc2)c2nccn2C)n1 [Example 16] | 2.1^[b] | –
17 | COc1ccccc1CC(=O)Nc1cccc(CON=C(c2cccc(F)c2)c2nccn2C)n1 [Example 275] | – | log p [1]: 2.66^[b]
18 | Cn1ncnc1C(=NOCc1cccc(NC(=O)CCc2cccc(C(F)(F)F)c2)n1)c1ccccc1 [Example 239] | – | log p [1]: 3.87^[b]
19 | CC(C)CC(=O)Nc1ccnc(CON=C(c2ccccc2)c2nccn2C)n1 [Example 15] | 1.76^[b] | –
20 | CCCCCOC(=O)Nc1nc(CON=C(c2cc(C(F)(F)F)ccn2)c2ncccc2C)cs1 [Example 489] | – | log p [3]: 4.13^[b]
21 | Cc1ccccc1C(=NOCc1cccc(N2C(=O)c3ccccc3C2=O)n1)c1ncnn1C [Example 9] | 2.78^[b] | –
22 | CCCCCC(=O)Nc1nc(CON=C(c2cccs2)c2cncn2C)cs1 [Example 429] | – | log p [3]: 1.93^[b]
23 | CC(C)C=C(OC(=O)CC(C)C)c1ncc(C(=NOCc2nccc(NC(=O)CC(C)C)n2)c2ccccc2)n1C [Example 103] | 4.04^[b] | –
24 | Cc1cccc(C(=NOCc2cccc(NC(=O)C3CC3)n2)c2ncnn2C)c1 [Example 20] | 2.73^[b] | –

Row | Structure (SMILES) | log p [2] | also measured
25 | Cn1ncnc1C(=NOCc1cccc(NC(=O)CCc2ccc(Cl)cc2)n1)c1ccccc1 [Example 300] | 3.72^[b] | –
26 | CCCCCOC(=O)Nc1cccc(CON=C(c2ccccc2)c2nccn2C)n1 [Example 37] | 2.6^[b] | –
27 | C#CCOC(=O)Nc1cccc(CON=C(c2ccccc2)c2nccn2C)n1 [Example 330] | 1.66^[b] | –
28 | Cn1c(C(=NOCc2cccc(NC(=O)c3cccs3)n2)c2ccccc2)nnc1C(F)(F)F [Example 204] | – | log p [1]: 3.48^[b]
29 | CC(C)C(=O)Nc1ccnc(CON=C(c2ccccc2)c2cnc(C(=O)C(C)C)n2C)n1 [Example 109] | 3.62^[b] | –
30 | CC(C)CC(=O)Nc1nc(CON=C(c2cccs2)c2ncnn2C)cs1 [Example 404] | 2.73^[b] | –
31 | Cc1cccc(C(=NOCc2cccc(N)n2)c2ncnn2C)c1 [Example 164] | – | log p [1]: 1.08^[b]
32 | Cn1ccnc1C(=NOCc1nccc(NC(=O)COCc2ccccc2)n1)c1ccccc1 [Example 54] | 2.04^[b] | –
33 | Cn1ncnc1C(=NOCc1cccc(N)n1)c1ccccc1 [Example 4, 6-[({[(1-methyl-1H-1,2,4-triazol-5-yl)(phenyl)methylene]amino}oxy)methyl]pyridin-2-amine] | – | chromatographic logP [4]: 1
34 | CCCCCOC(=O)Nc1cccc(CON=C(c2cccs2)c2nccn2C)n1 [Example 411] | 2.71^[b] | –
35 | CC(C)CCOC(=O)Nc1cccc(CON=C(c2cccc(F)c2)c2nccn2C)n1 [Example 346] | 2.82^[b] | –
36 | CCC(C)CC(=O)Nc1cccc(CON=C(c2ccccc2)c2ncnn2C)n1 (stereo not drawn) [Example 307] | 3.31^[b] | –
37 | Cn1ccnc1C(=NOCc1cccc(N2C(=O)c3ccccc3C2=O)n1)c1ccccc1 [Example 2] | 1.8^[b] | –
38 | CCCCCOC(=O)Nc1cccc(CON=C(c2ccccc2)c2ncnn2C)n1 [Example 35] | 3.96^[b] | –
39 | CCCCCCC(=O)Nc1cccc(CON=C(c2ccsc2)c2cncn2C)n1 [Example 438] | – | log p [3]: 2.25^[b]
40 | Cn1ccnc1C(=NOCc1cccc(NC(=O)Cc2cccs2)n1)c1ccccc1 [Example 264] | – | log p [1]: 2.23^[b]
41 | Cn1ncnc1C(=NOCc1cccc(NC(=O)CCc2ccccc2)n1)c1ccccc1 [Example 107] | 3.33^[b] | –
42 | Cn1cccc1C(=NOCc1cccc(N)n1)c1ccc(Cl)nc1 [Example 464] | – | log p [3]: 1.72^[b]
43 | CC(C)CC(=O)Nc1nc(CON=C(c2ccccc2)c2cncn2C)cs1 [Example 118] | 1.84^[b] | –
44 | Cn1ccnc1C(=NOCc1nccc(NC(=O)Cc2ccccc2)n1)c1ccccc1 [Example 155] | – | log p [1]: 2.01^[b]
45 | Cc1nc(C(=NOCc2cccc(NC(=O)Cc3ccccc3)n2)c2ccccc2)cs1 (single isomer, unassigned) [Example 173] | – | log p [1]: 3.61^[b]
46 | Cn1cncc1C(=NOCc1cccc(N)n1)c1ccccc1 (single isomer, unassigned) [Example 98] | 0.29^[b] | –
47 | Cn1ncnc1C(=NOCc1cccc(CNC(=O)CCc2ccccc2)n1)c1ccccc1 [Example 134] | 2.56^[b] | –
48 | CC(C)CCOC(=O)Nc1cccc(CON=C(c2ccccc2)c2ncnn2C)n1 [Example 317] | 3.9^[b] | –

Row | Structure (SMILES) | log p [2] | also measured
49 | Cn1ccnc1C(=NOCc1cccc(NC(=O)Cc2ccccc2Cl)n1)c1ccccc1 [Example 265] | – | log p [1]: 2.61^[b]
50 | CCCC(=O)Nc1cccc(CON=C(c2ccccc2)c2nc(C)cnc2C)n1 [Example 381] | 3.21^[b] | –
51 | CC(C)COC(=O)Nc1cccc(CON=C(c2cccc(F)c2)c2nccn2C)n1 [Example 345] | 2.51^[b] | –
52 | COc1ccc(C(=NO)c2ncc(C(F)(F)F)cc2Cl)cc1Br [1-(3-bromo-4-methoxyphenyl)-1-[3-chloro-5-(trifluoromethyl)pyridin-2-yl]-N-hydroxymethanimine] | – | chromatographic logP (HPLC/MS with HCOOH (formic acid)): 3.37
53 | Cn1ncnc1C(=NOCc1cccc(NC(=O)Cc2ccc(Cl)cc2)n1)c1ccccc1 [Example 242] | – | log p [1]: 3.46^[b]
54 | Cn1nc(C(F)(F)F)nc1C(=NOCc1cccc(NC(=O)C2CCCC2)n1)c1ccccc1 [Example 184] | – | log p [1]: 4.41^[b]
55 | CCCCS(=O)(=O)N(c1cccc(CON=C(c2ccccc2)c2ncnn2C)n1)S(=O)(=O)CCCC [Example 73] | 2.73^[b] | –
56 | CCOc1ccc(C(=O)Nc2cccc(CON=C(c3ccccc3)c3nnc(C(F)(F)F)n3C)n2)cc1 [Example 205] | – | log p [1]: 3.94^[b]
57 | CON(C)C(=O)c1snc(Cl)c1Cl [3,4-dichloro-N-methoxy-N-methyl-1,2-thiazole-5-carboxamide] | – | chromatographic logP (HCOOH (formic acid)): 1.66
58 | COCCC(=O)Nc1cccc(CON=C(c2ccccc2)c2ncnn2C)n1 [Example 237] | – | log p [1]: 2.17^[b]
59 | CC(C)COC(=O)Nc1cccc(CON=C(c2ccccc2)c2ncnn2C)n1 [Example 316] | 3.52^[b] | –
60 | Cn1ncnc1C(=NOCc1nccc(NC(=O)CCc2ccccc2)n1)c1cccs1 [Example 409] | 2.9^[b] | –
61 | Cn1ccnc1C(=NOCc1cccc(NC(=O)C(C)(C)C)n1)c1cccs1 [Example 413] | 1.78^[b] | –
62 | Cn1cnnc1C(=NOCc1cccc(N)n1)c1ccccc1 [Example 156] | – | log p [1]: 0.88^[b]
63 | Cn1nncc1C(=NOCc1cccc(NC(=O)C2CC2)n1)c1ccccc1 [Example 67] | 2.55^[b] | –
64 | Cn1cncc1C(=NOCc1cccc(NC(=O)C(C)(C)C)n1)c1cccs1 [Example 443] | – | log p [3]: 1.7^[b]
65 | Cn1cncc1C(=NOCc1cccc(N)n1)c1ccsc1 (single isomer, unassigned) [Example 419] | – | log p [3]: 0.32^[b]
66 | Cn1cnnc1C(=NOCc1cccc(C#CC2CC2)n1)c1ccccc1 [Example 229, N-{[6-(cyclopropylethynyl)pyridin-2-yl]methoxy}-1-(4-methyl-4H-1,2,4-triazol-3-yl)-1-phenylmethanimine] | – | chromatographic logP [4]: 2.56
67 | Cn1cncc1C(=NOCc1cccc(NC(=O)COc2ccccc2)n1)c1ccccc1 [Example 255] | – | log p [1]: 2.04^[b]
68 | Cn1cncc1C(=NOCc1csc(N)n1)c1cccs1 [Example 495, 4-[({[(1-methyl-1H-imidazol-5-yl)(2-thienyl)methylene]amino}oxy)methyl]-1,3-thiazol-2-amine] | – | chromatographic logP (HCOOH (formic acid)): 0.22
69 | Cn1ncnc1C(=NOCc1nccc(NC(=O)CCc2ccccc2)n1)c1ncc(C(F)(F)F)cc1Cl [Example 477] | – | log p [3]: 3.39^[b]
70 | Cn1cncc1C(=NOCc1csc(NC(=O)COc2ccccc2)n1)c1cccs1 [Example 434] | – | log p [3]: 1.87^[b]
71 | Cc1cccnc1C(=NOCc1csc(NC(=O)C(C)(C)C)n1)c1cc(C(F)(F)F)ccn1 [Example 487] | – | log p [3]: 3.44^[b]
72 | C=CCOC(=O)Nc1ccnc(CON=C(c2ccccc2)c2nccn2C)n1 [Example 57] | 1.62^[b] | –

From patent US8981111B2 (priority 2008, dated 2015)
